Results on one molecule are retold here after ChEMBL document CHEMBL4219169, “Sulfoximines as potent RORγ inverse agonists” (Bioorg Med Chem Lett, 2018).

Data set [1] concerns TK6. Briefly: Genotoxicity in human-derived p53-competent TK6 cells expressing GADD45a-dependent green fluorescent protein assessed as decrease in cell viability after 48 hrs in presence of Sprague-Dawley rat S9 fraction by FACS analysis. Type of data set: toxicity, cell-based. The note with it: s9, 48 h. In general terms: In flow cytometry, cells or beads pass a laser one at a time.

Data set [2] deals with Mus musculus. Briefly: In vivo inverse agonist activity at RORgamma in wild type BALB/c ByJ Rj mouse model of imiquimod-induced skin inflammation model assessed as attenuation of imiquimod-induced epidermal hyperplasia at 0.5% administered topically twice daily for 7 days dosed 2 hrs before and 6 hrs after imiquimod administration measured on day 8 by hematoxylin and eosin staining-based histological analysis. Type of data set: functional.

Data set [3] can be described thus: Solubility of the compound in PG/EtOH96 (3/7) solution incubated for 24 hrs by UV spectrometry. Type of data set: physicochemical.
The test system of data set [4] is TK6. Briefly: Genotoxicity in human-derived p53-competent TK6 cells expressing GADD45a-dependent green fluorescent protein assessed as decrease in cell viability after 48 hrs in absence of Sprague-Dawley rat S9 fraction by FACS analysis. The note with it: tk6, 48 h. The format is toxicity, cell-based.
The subject of data set [5] is Salmonella typhimurium. Briefly: Genotoxicity in Salmonella typhimurium TA98 in absence of aroclor-1254-induced rat S9 fraction by Ames test. The conditions noted are these: salmonella enterica subsp. enterica serovar typhimurium. The format is toxicity, organism-based. On the technique in general: The Ames test uses bacterial strains that need an amino acid and regain growth without it when mutated back.

Data set [6] has as its system Mus musculus. As to the kind of experiment: In vivo inverse agonist activity at RORgamma in wild type BALB/c ByJ Rj mouse model of imiquimod-induced skin inflammation model assessed as attenuation of imiquimod-induced epidermal hyperplasia at 6% administered topically twice daily for 7 days dosed 2 hrs before and 6 hrs after imiquimod administration measured on day 8 by hematoxylin and eosin staining-based histological analysis. Type of data set: functional.

Data set [7] can be described thus: Phototoxicity against human neonatal keratinocytes assessed as cell viability preincubated for 30 mins before 5 J/cm2 UV light irradiation for 15 mins followed by treatment medium replacement with fresh culture medium after 24 hrs by neutral red dye-based assay. The conditions noted are these: 0.25 h.
Data set [8] concerns the target T1, Retinoic acid receptor gamma (Homo sapiens, UniProt P13631).
T1 sequence (P13631 whole entry): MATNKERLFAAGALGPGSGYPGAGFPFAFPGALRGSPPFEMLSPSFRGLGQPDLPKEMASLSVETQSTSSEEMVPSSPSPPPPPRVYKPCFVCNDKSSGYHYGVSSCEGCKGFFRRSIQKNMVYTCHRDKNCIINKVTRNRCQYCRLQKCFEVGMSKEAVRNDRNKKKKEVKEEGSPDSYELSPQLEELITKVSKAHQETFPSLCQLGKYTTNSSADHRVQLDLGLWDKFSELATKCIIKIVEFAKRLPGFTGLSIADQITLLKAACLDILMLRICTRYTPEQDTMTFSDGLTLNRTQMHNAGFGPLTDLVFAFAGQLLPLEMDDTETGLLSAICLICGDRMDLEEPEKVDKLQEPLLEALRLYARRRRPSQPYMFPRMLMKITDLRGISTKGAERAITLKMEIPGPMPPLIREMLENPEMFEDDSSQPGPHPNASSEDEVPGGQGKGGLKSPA
As to the kind of experiment: Inverse agonist activity at RARgamma (unknown origin) expressed in human HeLa-derived HG5LN cells transfected with the GAL4 DNA-binding domain fused to the RARgamma ligand-binding domain assessed as inhibition of transcriptional activity after 18 hrs by luminescence-based luciferase reporter gene assay. Type of data set: cell-based. A general note: In a reporter assay the amount or activity of a reporter protein is the signal.

Data set [9] in a line: Fraction unbound in human plasma at 5 uM incubated for 4 hrs at 37 degC by LC-MS/MS method. The format is ADME, cell-free.
Data set [10] concerns TK6. As to the kind of experiment: Genotoxicity in human TK6 cells incubated for 3 hrs in absence of aroclor-1254-induced rat S9 fraction followed by 27 hrs recovery period by Giemsa staining dependent optical microscopy based micronucleus test. Type of data set: toxicity, cell-based. The note with it: tk6, 3 h.
Data set [11] relates to Salmonella typhimurium. As to the kind of experiment: Genotoxicity in Salmonella typhimurium TA100 in presence of aroclor-1254-induced rat S9 fraction by Ames test. The format is toxicity, organism-based. The conditions noted are these: salmonella enterica subsp. enterica serovar typhimurium.
Data set [12] concerns the target T2, Nuclear receptor ROR-alpha (Homo sapiens, UniProt P35398).
T2 sequence (P35398 whole entry): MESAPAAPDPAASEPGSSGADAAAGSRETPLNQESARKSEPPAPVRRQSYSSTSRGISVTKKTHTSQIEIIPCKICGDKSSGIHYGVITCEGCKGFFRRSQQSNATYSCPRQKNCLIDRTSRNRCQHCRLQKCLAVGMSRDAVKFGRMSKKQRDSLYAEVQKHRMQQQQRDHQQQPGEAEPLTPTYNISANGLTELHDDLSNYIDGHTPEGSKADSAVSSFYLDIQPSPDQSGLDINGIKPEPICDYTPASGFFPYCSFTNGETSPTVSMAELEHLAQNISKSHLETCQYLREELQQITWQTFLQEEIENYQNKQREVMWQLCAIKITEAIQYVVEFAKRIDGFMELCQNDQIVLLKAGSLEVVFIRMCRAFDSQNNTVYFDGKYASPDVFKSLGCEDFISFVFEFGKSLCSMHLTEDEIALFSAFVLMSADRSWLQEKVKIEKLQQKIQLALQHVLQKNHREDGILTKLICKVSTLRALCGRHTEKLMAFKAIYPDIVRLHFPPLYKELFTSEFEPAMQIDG
As to the kind of experiment: Inverse agonist activity at RORalpha (unknown origin) expressed in human HeLa-derived HG5LN cells transfected with the GAL4 DNA-binding domain fused to the RORalpha ligand-binding domain assessed as inhibition of transcriptional activity after 18 hrs by luminescence-based luciferase reporter gene assay. Type of data set: cell-based.

Data set [13] deals with TK6. Briefly: Genotoxicity in human TK6 cells incubated for 27 hrs in absence of aroclor-1254-induced rat S9 fraction by Giemsa staining dependent optical microscopy based micronucleus test. The format is toxicity, cell-based. The conditions noted are these: tk6, 27 h.
A short description of data set [14]: Intrinsic clearance in human hepatocytes assessed per million cells at 1 uM incubated for 5 to 90 mins by LC-MS/MS method. The note with it: read-out: CLH. Type of data set: ADME, cell-based, Hepatocyte.
A further data set deals with T3, Vitamin D3 receptor (Homo sapiens, UniProt P11473).
T3 sequence (P11473 whole entry): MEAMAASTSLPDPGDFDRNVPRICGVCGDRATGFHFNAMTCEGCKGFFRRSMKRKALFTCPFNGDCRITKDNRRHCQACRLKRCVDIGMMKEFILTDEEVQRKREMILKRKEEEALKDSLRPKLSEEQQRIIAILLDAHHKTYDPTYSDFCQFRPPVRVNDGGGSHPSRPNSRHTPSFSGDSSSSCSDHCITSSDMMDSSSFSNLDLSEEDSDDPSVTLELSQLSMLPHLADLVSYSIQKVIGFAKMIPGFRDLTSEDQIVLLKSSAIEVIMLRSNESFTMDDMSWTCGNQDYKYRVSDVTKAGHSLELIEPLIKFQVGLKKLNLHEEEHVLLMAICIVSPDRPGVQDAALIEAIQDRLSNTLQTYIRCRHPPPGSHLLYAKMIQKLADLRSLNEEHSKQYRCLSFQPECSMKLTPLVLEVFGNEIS

Data set [15] concerns Mus musculus. As to the kind of experiment: In vivo inverse agonist activity at RORgamma in wild type BALB/c ByJ Rj mouse model of imiquimod-induced skin inflammation model assessed as attenuation of imiquimod-induced epidermal hyperplasia at 3% administered topically twice daily for 7 days dosed 2 hrs before and 6 hrs after imiquimod administration measured on day 8 by hematoxylin and eosin staining-based histological analysis. The format is functional.

Data set [16] in a line: Stability of the compound in PG/EtOH96 (3/7) solution at 40 degC after 1 month by HPLC analysis. Type of data set: physicochemical. The note with it: read-out: Stability.

Molecules are shown by their SMILES. Converted amounts (≈) assume the structure as drawn.

Description for Vitamin D3 receptor: Activity at VDR expressed in human HeLa-derived HDLN6 cells assessed as inhibition of transcriptional activity after 18 hrs by luminescence-based luciferase reporter gene assay

Turning to `CCc1ccc(N(CC(C)C)S(=O)(=O)c2ccc(OCC3CCOCC3)c([S@@](C)(=N)=O)c2)cc1`, the Activity entry in the data set on TK6 [1] is “Non-Toxic”; in the data set with Mus musculus [2], 29%; in the data set with TK6 [4], “Non-Toxic”; with Salmonella typhimurium [5], “Non-Toxic”; in the data set on Mus musculus [6], 63%; in [7], “Non-Toxic”. Besides, the Activity entry with TK6 [10] is “Non-Toxic”; in the data set on Salmonella typhimurium [11], “Non-Toxic”; in the data set with TK6 [13], “Non-Toxic”; in the data set with Mus musculus [15], 46%. Further, the solubility (as a rule, the concentration that dissolves in the medium under given conditions) at 24 h in [3] was 31 mM (≈ 15.8 mg/mL). The IC50 in [8] and in [12] was more than 10 µM in each case. Also, the fraction unbound (usually free concentration divided by total concentration) at 4 h, 5 µM in data set [9] stood at 0.048. In [14], the hepatocyte CLint at 1 µM came out at 180 µL/min/1e6 cells. At Vitamin D3 receptor, the Kd (commonly the concentration at which binding is half-saturated) is more than 10 µM. For the same molecule, the remaining at 730.5 h in data set [16] was more than 98%.
